Source: paper PMC12884772, “Macrophagic Sclerostin Loop2‐ApoER2 Interaction Required by Sclerostin for Cardiovascular Protective Action” (Advanced Science, 2025)

Columns and labels:
[1] = tested on: sost^−/−.ApoE^−/− mice; experiment: Inflammatory responses in sost^−/−.ApoE^−/− mice with AngII infusion (absence of sclerostin); format: in vivo, mouse; details: 10 mg/kg, n = 6, Figure S12F
Method: (§1) Aortic aneurysm (AA), atherosclerosis, and inflammatory responses were induced in ApoE^−/− mice with AngII infusion as previously described.^[ [15] ^] In brief, osmotic minipumps (Model 1004, ALZET, Durect Corporation) were implanted into the subcutaneous space along the dorsal midline under anaesthesia on the right flank via an incision in the scapular region to deliver 1000 ng/kg/min of AngII (A9525, Sigma‐Aldrich) or vehicle in 3‐month‐old mice for four weeks.^[ [68] ^]
(§2) The serum levels of sclerostin were detected using the sclerostin ELISA kits (R&D, DSST00; Cloud‐Clone, SEC864Mu) in triplicate following the manufacturer's instructions.^[ [14] ^] The serum levels of pro‐inflammatory cytokine and chemokine were measured using TNF‐α ELISA kit (Thermo Fisher BMS607‐3) and MCP‐1 ELISA kit (Thermo Fisher, BMS6005) in triplicate following manufacturer's instructions.^[ [15], [45] ^] The serum levels of anti‐inflammatory cytokine were measured using IL‐10 ELISA kit (Jonlnbio JL20242‐96T) in triplicate following manufacturer's instructions.^[ [15], [45] ^]
Figure S12. […] (A) Serum stability of the modified ApoER2-Pep. […] All tests were two-sided. n = 6 per group. Data were expressed as mean ± standard deviation.

[2] = tested on: sclerostin‐knockout macrophages (RAW264.7); experiment: Effect of ApoER2‐LA7 on LPS‐induced cytokine mRNA in sclerostin‐knockout macrophages (RAW264.7); format: cell-based, mouse; details: sclerostin‐knockout RAW264.7, after LPS induction, n = 3; Figure S7C
[3] = tested on: sclerostin loop2‐ApoER2 interaction; experiment: BLI blockade of ApoER2 - sclerostin loop2 binding by pretreatment with ApoER2‐Pep; details: His‐ApoER2 on HIS1K biosensors, sclerostin loop2 pretreated with ApoER2‐Pep, Figure 6F, listed as ApoER2‐LA7
Method: Biolayer interferometry (BLI) analysis was performed on the Biomolecular Interaction Analyzer (ForteBio, Octet RED96e). To determine the binding affinity between ApoER2 and sclerostin, the ApoER2 protein (R&D, 3520‐AR) was biotinylated using 10 mM EZ‐Link Sulfo‐NHS‐LC‐LC‐Biotin (Thermo Scientific, 21 343) in a molar ratio of 1:20 for 2 h at 4 °C. The Slide‐A‐Lyzer Dialysis Cassettes (Thermo Scientific, 66 382) were used for excess biotin removal.^[ [61] ^] […] (SA) tray biosensors (Sartorius, 18‐5019) were used to load biotin‐ApoER2 proteins. Biosensors were pre‐wet for 10 min using 200 µL PBS containing 0.02% Tween 20 (v/v) in a 96‐well plate. To determine the binding affinity between sclerostin loop2 and ApoER2‐LA7, anti‐penta‐HIS (HIS1K) biosensors (Sartorius, 18‐5102) were used to load His‐sclerostin loop2, the sclerostin loop2‐loaded biosensors were immersed in the ApoER2‐LA7 with different concentrations. […] Raw data were analyzed using Data Analysis Software (ForteBio, v8.1). All Kd values were calculated after deducting the non‐specific binding between the biosensors and the samples.^[ [62], [63] ^]
Target sequence in this assay (Q99P68 107-132 limits assumed): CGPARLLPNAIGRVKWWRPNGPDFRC

[4] = tested on: SOST^ki.ApoE^−/− mice; experiment: Aortic aneurysm, atherosclerosis and inflammatory responses in SOST^ki.ApoE^−/− mice with AngII infusion; format: in vivo, mouse; details: 10 mg/kg/day subcutaneous, four weeks, versus veh and Rseq‐Pep groups, n = 12
Method: as §1
For AA evaluation, the aortas were perfused via the left ventricle with ice‐cold EDTA buffer (1 mM) and saline immediately after sacrifice. The aortas were then isolated from the fat and connective tissues under a Zeiss Stemi 305 stereomicroscope and then fixed in 4% PFA. The aorta with or without aneurysm formation was defined according to Daugherty's modified classification.^[ [45] ^] The incidence of AA was determined as follows: mouse number with aortic aneurysm/group mice*100%. The maximum ex vivo diameters of the aortic arch and suprarenal aorta were determined by ImageJ software. For atherosclerosis assessment, atherosclerotic plaque was quantified by measuring the surface area of the Oil Red O‐positive lesions on en face preparation of aortic arches.^[ [14] ^] Briefly, aortic arches were cut longitudinally and immersed in Oil Red O dye solution, followed by being rinsed with 75% ethanol. The ratio of atherosclerotic plaque area to total aortic arch area was quantified by colorimetric analysis using Image J software.^[ [13] ^]
as §2

[5] = tested on: sclerostin loop2‐ApoER2 interaction; experiment: ApoER2‐Pep blockade of sclerostin effects in ApoER2 overexpressing, LPS‐induced RAW 264.7 macrophages; format: cell-based, mouse
Method: In ApoER2‐Pep‐mediated structure‐function studies in vitro, RAW 264.7 cells were divided into 4 groups (n = 3 per group), including (1) Control, (2) LPS, (3) Lrp8 + LPS + SOST, and (4) Lrp8 + LPS + SOST + ApoER2‐Pep. Cells in groups (3) and (4) were transfected with Lrp8 plasmids encoding ApoER2, while cells in groups (1) and (2) were kept untreated. 24 h later, cells in group (3) were treated with recombinant sclerostin (SOST, 1 µM), while cells in group (4) were treated with recombinant sclerostin (1 µM) and ApoER2‐Pep (2 µM) for 3 h. Then, cells in groups (2), (3), and (4) were treated with LPS (1 µg/mL) for 18 h. All groups of cells were collected for determining the mRNA expression levels of TNF‐α, MCP‐1, and IL‐10 by RT‐PCR. Cell mediums were collected for determining the protein expression/secretion levels of mouse TNF‐α, mouse MCP‐1, and mouse IL‐10 by ELISA.
Total RNA was extracted from cells following the protocols of Trizol reagent (Invitrogen, 15 596 026). Reverse‐transcription was performed to obtain cDNA using HiScript III RT SuperMix kit (Vazyme, R323), and RT‐PCR was accomplished using a HiScript III RT SuperMix kit (Vazyme, R323) in a QuantStudio 7 PRO System (Applied Biosystems). The relative gene expression levels were calculated using the 2^−ΔΔCt method with GAPDH as the reference gene.^[ [40] ^] The primers were as follows: mouse GAPDH (F: […], R: GGGGTCGTTGATGGCAAC), mouse NF‐κB (p65, F: […], R: […]), mouse TNF‐α (F: […], R: […]), mouse MCP‐1 (F: […], R: […]), mouse IL‐10 (F: […], R: […]), human GAPDH (F: […], R: […]), human TNF‐α (F: […], R: […]), human MCP‐1 (F: […], R: […]) and human IL‐10 (F: […], R: […]).

[6] = LPS‐induced macrophages in vitro

Binding of ApoER2 to sclerostin loop2 after pretreatment with the peptide [3]: blocked
Sequence: PCRENEFQCGDGTCVLAIKRCNQERDCPDGSDEAGCL [ApoER2‐Pep]
Effect on inflammatory responses (serum TNF‐α, MCP‐1, IL‐10) in the absence of sclerostin [1]: no effect
mRNA expression levels of TNF‐α, MCP‐1 and IL‐10, with versus without the peptide [2]: no significant differences
Serum level of IL‐10 ([4]; ELISA): significantly lower
Serum level of MCP‐1 ([4]; ELISA): significantly higher
Serum level of TNF‐α ([4]; ELISA): significantly higher
AA incidence [4]: significantly higher
Maximum ex vivo diameters of aortic arches and suprarenal aortas [4]: significantly higher
Ratio of atherosclerotic plaque in aortic arches [4]: significantly higher
Effects of exogenous sclerostin on protein expression/secretion of TNF‐α, MCP‐1 and IL‐10 after pretreatment with the peptide ([5]; ApoER2‐Pep 2 µM + sclerostin 1 µM for 3 h, LPS 1 µg/mL 18 h, ELISA, n = 3): significantly attenuated
Effects of exogenous sclerostin on mRNA expression of TNF‐α, MCP‐1 and IL‐10 after pretreatment with the peptide ([5]; ApoER2‐Pep 2 µM + sclerostin 1 µM for 3 h, LPS 1 µg/mL 18 h, RT‐PCR, n = 3): significantly attenuated
Reversal of the promotive effect of sclerostin on IL‐10 mRNA expression [5, 6]: complete reversal
Reversal of the suppressive effect of sclerostin on MCP‐1 mRNA expression [5, 6]: complete reversal
Reversal of the suppressive effect of sclerostin on TNF‐α mRNA expression [5, 6]: partial reversal
